Measured values taken from PubChem BioAssay AID2060615 (Molecular Pharmacology Branch, DTP, NCI, 2025).
Several values for one entry are separate records, joined by “and”; a condition that tells them apart may be missing. Equal entries are not always repeated.

Test system: 496974-208-R-J2-PDC complex spheroids, growth % test/control
Experiment: Anticancer human tumor 496974-208-R-J2-PDC patient-derived pancreatic carcinoma cell line growth inhibition [CLK]
Settings: for viability, T/C: stronger effect = lower value
Method in brief: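 Patient-derived tumor cells grown as complex spheroids with HUVEC endothelial cells and mesenchymal stem cells, treated with drug combinations. Concentrations descend in half-log steps from near clinical Cmax, or from 10 microM if Cmax unknown.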

[1] = curve of first compound, second compound 0.0316 µM
[2] = curve of first compound, second compound 0.1 µM
[3] = curve of first compound, second compound 0.316 µM
[4] = curve of first compound, second compound 1 µM
[5] = curve of first compound, second compound 3.16 µM
[6] = curve of first compound, second compound 10 µM
[7] = second compound 0.0316 µM, first compound 0.0316 µM
[8] = second compound 0.0316 µM, first compound 0.1 µM
[9] = second compound 0.0316 µM, first compound 0.316 µM
[10] = second compound 0.0316 µM, first compound 1 µM
[11] = second compound 0.0316 µM, first compound 3.16 µM
[12] = second compound 0.0316 µM, first compound 10 µM
[13] = second compound 0.1 µM, first compound 0.0316 µM
[14] = second compound 0.1 µM, first compound 0.1 µM
[15] = second compound 0.1 µM, first compound 0.316 µM
[16] = second compound 0.1 µM, first compound 1 µM
[17] = second compound 0.1 µM, first compound 3.16 µM
[18] = second compound 0.1 µM, first compound 10 µM
[19] = second compound 0.316 µM, first compound 0.0316 µM
[20] = second compound 0.316 µM, first compound 0.1 µM
[21] = second compound 0.316 µM, first compound 0.316 µM
[22] = second compound 0.316 µM, first compound 1 µM
[23] = second compound 0.316 µM, first compound 3.16 µM
[24] = second compound 0.316 µM, first compound 10 µM
[25] = second compound 1 µM, first compound 0.0316 µM
[26] = second compound 1 µM, first compound 0.1 µM
[27] = second compound 1 µM, first compound 0.316 µM
[28] = second compound 1 µM, first compound 1 µM
[29] = second compound 1 µM, first compound 3.16 µM
[30] = second compound 1 µM, first compound 10 µM
[31] = second compound 3.16 µM, first compound 0.0316 µM
[32] = second compound 3.16 µM, first compound 0.1 µM
[33] = second compound 3.16 µM, first compound 0.316 µM
[34] = second compound 3.16 µM, first compound 1 µM
[35] = second compound 3.16 µM, first compound 3.16 µM
[36] = second compound 3.16 µM, first compound 10 µM
[37] = second compound 10 µM, first compound 0.0316 µM
[38] = second compound 10 µM, first compound 0.1 µM
[39] = second compound 10 µM, first compound 0.316 µM
[40] = second compound 10 µM, first compound 1 µM
[41] = second compound 10 µM, first compound 3.16 µM
[42] = second compound 10 µM, first compound 10 µM
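Further: spheroids exposed to the drugs for 7 days before readout.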
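Wherever viability, T/C is given: 100% = DMSO vehicle control wells.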

COc1ccc([C@@H](O)c2cc(-c3ncnc4cc(N5CCOCC5)ccc34)c(F)cc2Cl)nn1 + CN1CCN(c2cc(C(=O)Nc3cc4cc(-c5cnn(C)c5)ccc4cn3)ccn2)CC1
IC50 [1]: 5.97 µM
IC50 [2]: 3.47 µM
IC50 [3]: < 0.0316 µM
IC50 [4]: < 0.0316 µM
IC50 [5]: < 0.0316 µM
IC50 [6]: < 0.0316 µM
viability, T/C [7]: 110%
viability, T/C [8]: 101%
viability, T/C [9]: 92.9%
viability, T/C [10]: 88.7%
viability, T/C [11]: 63.6%
viability, T/C [12]: 37.7%
viability, T/C [13]: 84.8%
viability, T/C [14]: 81.4%
viability, T/C [15]: 84.2%
viability, T/C [16]: 69.9%
viability, T/C [17]: 52.2%
viability, T/C [18]: 31.5%
viability, T/C [19]: 4.25%
viability, T/C [20]: 4.3%
viability, T/C [21]: 5.59%
viability, T/C [22]: 3.72%
viability, T/C [23]: 2.53%
viability, T/C [24]: 1.66%
viability, T/C [25]: 0.41%
viability, T/C [26]: 0.45%
viability, T/C [27]: 2.89%
viability, T/C [28]: 0.48%
viability, T/C [29]: 1.17%
viability, T/C [30]: 1.46%
viability, T/C [31]: 0.36%
viability, T/C [32]: 0.61%
viability, T/C [33]: 0.67%
viability, T/C [34]: 0.54%
viability, T/C [35]: 2.79%
viability, T/C [36]: 2.82%
viability, T/C [37]: 0.19%
viability, T/C [38]: 0.34%
viability, T/C [39]: 1.74%
viability, T/C [40]: 0.3%
viability, T/C [41]: 2%
viability, T/C [42]: 2.87%

CCCS(=O)(=O)Nc1ccc(F)c(C(=O)c2c[nH]c3ncc(-c4ccc(Cl)cc4)cc23)c1F
viability, T/C (compound 0.0316 µM): 108% and 106%
viability, T/C (compound 0.1 µM): 92.2% and 91.8%
viability, T/C (compound 0.316 µM): 100% and 95.3%
viability, T/C (compound 1 µM): 108% and 93.8%
viability, T/C (compound 3.16 µM): 87.8% and 93.4%
viability, T/C (compound 10 µM): 36.3% and 21.7%
IC50 (curve of compound): 7.38 µM and 6.35 µM

CC1(C)CCC(CN2CCN(c3ccc(C(=O)NS(=O)(=O)c4ccc(NCC5CCOCC5)c([N+](=O)[O-])c4)c(Oc4cnc5[nH]ccc5c4)c3)CC2)=C(c2ccc(Cl)cc2)C1 + CN1CCN(c2cc(C(=O)Nc3cc4cc(-c5cnn(C)c5)ccc4cn3)ccn2)CC1
IC50 [1]: > 10 µM
IC50 [2]: 8.06 µM
IC50 [3]: < 0.0316 µM
IC50 [4]: < 0.0316 µM
IC50 [5]: < 0.0316 µM
IC50 [6]: < 0.0316 µM
viability, T/C [7]: 93.7%
viability, T/C [8]: 95.9%
viability, T/C [9]: 101%
viability, T/C [10]: 104%
viability, T/C [11]: 92.1%
viability, T/C [12]: 50.8%
viability, T/C [13]: 80.3%
viability, T/C [14]: 77.9%
viability, T/C [15]: 86.7%
viability, T/C [16]: 87.7%
viability, T/C [17]: 84.9%
viability, T/C [18]: 42.3%
viability, T/C [19]: 5.92%
viability, T/C [20]: 5.59%
viability, T/C [21]: 5.97%
viability, T/C [22]: 6.42%
viability, T/C [23]: 3.9%
viability, T/C [24]: 5.66%
viability, T/C [25]: 0.75%
viability, T/C [26]: 0.68%
viability, T/C [27]: 0.5%
viability, T/C [28]: 0.5%
viability, T/C [29]: 0.63%
viability, T/C [30]: 2.1%
viability, T/C [31]: 0.5%
viability, T/C [32]: 0.74%
viability, T/C [33]: 0.43%
viability, T/C [34]: 0.7%
viability, T/C [35]: 0.52%
viability, T/C [36]: 3.57%
viability, T/C [37]: 0.25%
viability, T/C [38]: 1.16%
viability, T/C [39]: 0.37%
viability, T/C [40]: 0.34%
viability, T/C [41]: 0.32%
viability, T/C [42]: 2.82%

CCCS(=O)(=O)Nc1ccc(F)c(C(=O)c2c[nH]c3ncc(-c4ccc(Cl)cc4)cc23)c1F + CNC(=O)c1ccc(Nc2nc(OC3CCCC3)c3c(-c4ccc5nc(C)oc5c4)c[nH]c3n2)c(OC)c1
IC50 [1]: 6.39 µM
IC50 [2]: 6.36 µM
IC50 [3]: > 10 µM
IC50 [4]: 2.59 µM
IC50 [5]: 0.0681 µM
IC50 [6]: < 0.0316 µM
viability, T/C [7]: 94.7%
viability, T/C [8]: 73.7%
viability, T/C [9]: 115%
viability, T/C [10]: 100%
viability, T/C [11]: 91%
viability, T/C [12]: 23.6%
viability, T/C [13]: 71.5%
viability, T/C [14]: 47.6%
viability, T/C [15]: 78.6%
viability, T/C [16]: 86%
viability, T/C [17]: 78.2%
viability, T/C [18]: 35.6%
viability, T/C [19]: 70.7%
viability, T/C [20]: 45.4%
viability, T/C [21]: 76.3%
viability, T/C [22]: 71.2%
viability, T/C [23]: 78.2%
viability, T/C [24]: 29.6%
viability, T/C [25]: 51.2%
viability, T/C [26]: 44.1%
viability, T/C [27]: 64.5%
viability, T/C [28]: 69.5%
viability, T/C [29]: 66.2%
viability, T/C [30]: 22.4%
viability, T/C [31]: 52%
viability, T/C [32]: 26%
viability, T/C [33]: 61.9%
viability, T/C [34]: 63.3%
viability, T/C [35]: 53.1%
viability, T/C [36]: 19.8%
viability, T/C [37]: 50.7%
viability, T/C [38]: 30.5%
viability, T/C [39]: 58.6%
viability, T/C [40]: 61.7%
viability, T/C [41]: 64%
viability, T/C [42]: 27.2%

Nc1ccccc1NC(=O)c1ccc(CNC(=O)OCc2cccnc2)cc1 + CNC(=O)c1ccc(Nc2nc(OC3CCCC3)c3c(-c4ccc5nc(C)oc5c4)c[nH]c3n2)c(OC)c1
IC50 [1]: 4.52 µM
IC50 [2]: 4.53 µM
IC50 [3]: 4.36 µM
IC50 [4]: 4.23 µM
IC50 [5]: 3.34 µM
IC50 [6]: 3.34 µM
viability, T/C [7]: 92.7%
viability, T/C [8]: 92.8%
viability, T/C [9]: 89.9%
viability, T/C [10]: 78%
viability, T/C [11]: 75.3%
viability, T/C [12]: 0.72%
viability, T/C [13]: 81.8%
viability, T/C [14]: 72.5%
viability, T/C [15]: 66.3%
viability, T/C [16]: 61.4%
viability, T/C [17]: 73.6%
viability, T/C [18]: 3.35%
viability, T/C [19]: 78.6%
viability, T/C [20]: 72.9%
viability, T/C [21]: 74.2%
viability, T/C [22]: 56.1%
viability, T/C [23]: 69.2%
viability, T/C [24]: 1.48%
viability, T/C [25]: 69.1%
viability, T/C [26]: 65.1%
viability, T/C [27]: 67.8%
viability, T/C [28]: 58.5%
viability, T/C [29]: 68.6%
viability, T/C [30]: 3%
viability, T/C [31]: 63.5%
viability, T/C [32]: 59.2%
viability, T/C [33]: 55%
viability, T/C [34]: 49.7%
viability, T/C [35]: 53.5%
viability, T/C [36]: 4.03%
viability, T/C [37]: 60.2%
viability, T/C [38]: 53.4%
viability, T/C [39]: 52.1%
viability, T/C [40]: 42.9%
viability, T/C [41]: 53.2%
viability, T/C [42]: 4.38%
